*1 amine or outer side, *2 acyl side, *3 side chain or, on linkers, in order; H or OH if unused. Where a SMILES comes first, the peptide text is derived from it. [ ]: non-standard residue; d: D form. X1 = O=C(C1(N[*:1])C2CC3CC(C2)CC1C3)[*:2]
Tests used:
[1] = Stability in artificial gastric juice; assay type: in vitro ADME; settings: simulated gastric fluid; during 30 minutes; read-out: stable in artificial gastric juice
Protocol: (§1) P021 is quite stable in artificial gastric juice (˜90% during 30 minutes) and in artificial intestinal juice (˜95% during 120 minutes).

[2] = Stability in artificial intestinal juice; assay type: in vitro ADME; settings: simulated intestinal fluid; during 120 minutes; read-out: stable in artificial intestinal juice
Protocol: as §1

[3] = BBB studies through a commercial service (APREDICA)
[4] = test system: retina of aged Fisher rats; experiment: Retinal morphology by H & E staining in aged Fisher rats; assay type: in vivo, rat; settings: 500 nmoles/kg/day by gavage, 3 months
Protocol: (§2) Female aged (19˜21 months) Fisher rats (n=7) were given P021 per os by gavage (10 ml/kg body weight) once a day for 88 days. The dose of P021 was 500 nanomoles (289.15 microgram)/kg body weight daily. As controls, a second group of aged (19˜21 months) female rats (n=7) and a group of young adult female rats (2-3 months, n=7) were treated identically, but with normal saline (vehicle) only (FIG. 1A). Administration of vehicle and test compound was done at 7-9 AM daily in the pretesting phase.
(§3) The animals were anesthetized by using an overdose of avertin and then were transcardially perfused by using 0.1 M phosphate-buffered saline (PBS). Eyeballs were dissected out from the carcasses, immersion-fixed for 24 hours in 4% paraformaldehyde at 4° C., and then transferred to 70% alcohol for storage; in the case of mice, the eyeballs were prefixed by injecting 4% paraformaldehyde, followed by removal from the carcasses and immersion fixation as above. After the cornea and lens of the left eyes were removed, the remaining eye cup was embedded in paraffin with the orientation parallel to the optic nerve in longitudinal position. In all cases, 5-μm serial sections were cut by using a rotary microtome and were mounted on Superfrost Plus slides.
(§4) Every 25th retinal section was deparaffinized and subjected to hematoxylin and eosin (H & E) staining to evaluate the morphology. The H & E staining images were captured with a light microscope using 2×, 40×, and 100× objective lenses. Because there is no significant difference between the ⅕th to the ⅓rd of the retina from the optic nerve head and the most peripheral part, the ⅕^th position of the retina from the optic nerve to the most peripheral part of the retina was chosen as the “central,” and the most peripheral part of the retina as “peripheral.” Rows of the outer nuclear layer (ONL) and the inner nuclear layer (INL) of the retina in each group (every 25th section, 3-5 sections per rat or mouse) were manually counted in three columns per image by using a 40× or, where necessary, a higher magnification objective. The thicknesses of the ONL and INL of the central and peripheral retina in each group (every 25th section from the optic nerve head, 2-3 sections per rat or mouse) were measured and quantified by using the ImageJ/NIH image analysis system.

RPE of aged Fisher rats = experiment: Auto-fluorescence of RPE lipofuscin granules and deposits in aged Fisher rats; assay type: in vivo, rat; settings: 500 nmoles/kg/day by gavage, 3 months
Protocol: as §2
(§5) The animals were anesthetized by using an overdose of avertin and then were transcardially perfused by using 0.1 M phosphate-buffered saline (PBS). Eyeballs were dissected out from the carcasses, immersion-fixed for 24 hours in 4% paraformaldehyde at 4° C., and then transferred to 70% alcohol for storage; in the case of mice, the eyeballs were prefixed by injecting 4% paraformaldehyde, followed by removal from the carcasses and immersion fixation as above. […]
(§6) Paraffin sections were deparaffinized, rehydrated, and covered with coverslips with 0.1M PBS and then photographed by using a confocal microscope with red channel (λex=543, λem=590/50), as described previously. […] For quantification, the number of deposits between RPE and Cho in each section was manually counted by using a 20× or, where necessary, a higher magnification objective.

[5] = test system: retina of aged 3×Tg-AD mice; experiment: Retinal morphology by H & E staining in aged 3×Tg-AD mice; assay type: in vivo, mouse; settings: 60 nmoles/g feed from 3 to 21 months of age
Description: (§7) At approximately 3 months of age, the female wild type and 3×Tg-AD mice were divided into five groups (n=6-7 mice per group) (FIG. 3A): (1) Wild type mice, age 3 months, without treatment (WT-3m); (2) 3×Tg-AD mice, age 3 months, without treatment (3×Tg-3m); (3) Wild type mice, age 3 months, treated with vehicle feed without P021 until the age of 21 months (WT-21m/Veh); (4) 3×Tg-AD-mice, age 3 months, treated with vehicle feed without P021 until the age of 21 months (3×Tg-21m/Veh); and (5) 3×Tg-AD-mice, age 3 months, treated with 60 nmol P021/g feed till the age of 21 months (3×Tg-21m/P021). The first two groups were the starting point and were employed as the matched young controls. P021 was formulated in the feed by Research Diets (New Brunswick, N.J., USA). Food consumption and body weight were recorded every 2 weeks and every month, respectively. The average mouse food consumption was ˜2.7 g feed/day.
as §3, §4

RPE of aged 3×Tg-AD mice = experiment: Auto-fluorescence of RPE lipofuscin granules and deposits in aged 3×Tg-AD mice; assay type: in vivo, mouse
Description: as §7, §3, §6

Iba-1 [6] = experiment: Iba-1 immunofluorescence (microgliosis) in retina of aged 3×Tg-AD mice; assay type: in vivo, mouse; settings: 60 nmoles/g feed from 3 to 21 months of age
Description: as §7, with “feed/day. […]” for “feed/day.”
(§8) Paraffin sections were deparaffinized, rehydrated, and subjected to antigen retrieval by boiling for 20 minutes in 10 mM sodium citrate solution (pH 6.0). […] The area to be analyzed was selected and converted to grey scale, the threshold (Yen mode) was adjusted, and the area percentage of positive staining was measured for each section by using the NIH Image J software package. […]

Iba-1 [7] = experiment: Iba-1 immunofluorescence (microgliosis) in retina of aged rats; assay type: in vivo, rat; settings: 500 nmoles/kg/day by gavage, 3 months
Protocol: as §2, §3
as §8, with “6.0). Sections were then washed three times in 10 mM PBS for 15 minutes each and incubated in 0.3% Triton X-100 for 30 minutes. The sections were again washed in 10 mM PBS (15 minutes, three times each) and blocked in blocking solution (5% normal goat serum containing 0.1% Triton X-100 and 0.05% Tween 20 in PBS) for 45 minutes.” for “6.0).”

GFAP [8] = experiment: GFAP immunofluorescence (astrogliosis) in retina of aged 3×Tg-AD mice; assay type: in vivo, mouse; settings: 60 nmoles/g feed from 3 to 21 months of age
Description: as §7, §3, §8

GFAP [9] = experiment: GFAP immunofluorescence (astrogliosis) in retina of aged rats; assay type: in vivo, rat
Protocol: as §2, §5, §8

total tau, P-tau, Aβ/APP [10] = experiment: Tau, phosphorylated tau and Aβ/APP immunofluorescence in retina of aged rats; assay type: in vivo, rat
Protocol: as §2, §3
(§9) Paraffin sections were deparaffinized, rehydrated, and subjected to antigen retrieval by boiling for 20 minutes in 10 mM sodium citrate solution (pH 6.0). Sections were then washed three times in 10 mM PBS for 15 minutes each and incubated in 0.3% Triton X-100 for 30 minutes. The sections were again washed in 10 mM PBS (15 minutes, three times each) and blocked in blocking solution (5% normal goat serum containing 0.1% Triton X-100 and 0.05% Tween 20 in PBS) for 45 minutes. Sections were then incubated overnight at 4° C. with the corresponding primary antibodies (see Table 1 for antibodies used in this study) diluted in the same blocking solution. After being washed three times for 15 minutes each with 10 mM PBS, sections were incubated with Alexa-Fluor 488-conjugated goat anti-mouse or anti-rabbit IgG secondary antibodies (1:1000) in 10 mM PBS with 0.05% Tween 20 for 2 hours at room temperature. Sections were subsequently washed one time and incubated with To-Pro (1:1000) for 15 minutes. After being washed three times for 15 minutes, sections were mounted and cover-slipped by using ProLong Gold anti-fade reagent. The absence of primary antibody control staining was included in each experiment as a negative control. Double immunofluorescence and To-Pro images were captured at equal camera exposure (for each antibody staining) with a Nikon EZ-C1 laser confocal imaging system. The area to be analyzed was selected and converted to grey scale, the threshold (Yen mode) was adjusted, and the area percentage of positive staining was measured for each section by using the NIH Image J software package. The staining area was averaged from 2-3 independent sections of each eye (n=5-7 different animals per group).

total tau, P-tau, Aβ/APP [11] = experiment: Tau, phosphorylated tau and Aβ/APP immunofluorescence in retina and optic nerve of aged 3×Tg-AD mice; assay type: in vivo, mouse
Description: as §7, §3, §9

VEGF = VEGF immunofluorescence in retina and optic nerve of aged 3×Tg-AD mice; assay type: in vivo, mouse
Description: as §7, §3, §8

[12] = cited from earlier work
[13] = test system: rat and mouse models of AD; settings: cited from earlier work
[14] = chronic oral treatment, aged rats and mice; cited from earlier work
[15] = 60 nmoles/g feed from 3 to 21 months of age, auto-fluorescence
[16] = 3×Tg-AD mice, 60 nmoles/g feed from 3 to 21 months of age

SMILES: CC(=O)N[C@@H](CC(=O)O)C(=O)NCC(=O)NCC(=O)N[C@@H](CC(C)C)C(=O)NC1(C(N)=O)C2CC3CC(C2)CC1C3 (stereo partly shown) [P021, Ac-DGGL^AG-NH2] (Ac-DGGL[X1]-NH2)
- remaining at 0.5 h [1]: ~90%
- remaining at 2 h [2]: ~95%
- crossing of the BBB [3]: a sufficient amount of P021 crossed the BBB
- RPE vacuolization and atrophy [4]: no apparent abnormalities were observed
- arrangement of apical microvilli (AM) in RPE [4]: showed improvement in the arrangement of AM
- decrease in rows and thickness of ONL, central vs peripheral retina [4]: prevented these pathological changes more effectively in the central retina
- outer retinal folds and rosette-like structures in the central retina [4]: No abnormal structure like this was observed
- rows and thickness of INL in the central retina [4]: no detectable effect
- rows and thickness of ONL, P021-treated aged rats vs young rats [4]: no significant difference between ˜5- to 6-month-old rats and P021-treated ˜22- to 24-month-old rats
- rows of INL in the peripheral retina [4]: showed a clear trend to rescue the number of rows
- lipofuscin granules and deposition number between RPE and Cho (RPE of aged Fisher rats): obviously decreased
- decrease in rows and thickness of INL in the central retina [5]: chronic treatment with P021 prevented these changes
- decrease in rows and thickness of ONL in the central retina [5]: prevented
- decrease in rows and thickness of ONL in the peripheral retina [5]: not in the peripheral retina
- extension of ONL nuclei across the OPL into the INL, central retina [5]: this pathology was prevented
- prevention of changes in rows and thickness of INL in the peripheral retina [5]: did not reach significance
- rescue of INL thickness in the central retina [5]: did not reach statistical significance
- deposits between the RPE and Cho (RPE of aged 3×Tg-AD mice; [15]): significantly reduced
- lipofuscin granules in RPE (RPE of aged 3×Tg-AD mice; [15]): some small lipofuscin granules could still be observed
- RPE and BM abnormalities (AMD features) overall (RPE of aged 3×Tg-AD mice; P021 administered in the diet): Most of these AMD features were prevented
- Iba-1 immunostaining (area percentage) in the peripheral retina (Iba-1 [6]): decreased in 3×Tg-21 m/P021 mice to the levels in WT-3 m/Veh and 3×Tg-3 m/Veh mice
- distribution of Iba-1-positive staining in the central retina (Iba-1 [6]): Iba-1-positive staining was only observed in the GCL
- relative Iba-1 immunostaining from the NFL to the OS, central and peripheral retinas (Iba-1 [7]): dramatically reduced
- Iba-1 staining from the ONL to the OS (Iba-1 [7]; especially central retina): no staining was found from the ONL to the OS
- localization of Iba-1 from the NFL to the OPL (Iba-1 [7]; vs vehicle aged rats): decrease in localization from the NFL to the OPL
- area percentage of GFAP from the NFL to the ONL in the central retina (GFAP [8]): reduced by P021 treatment to the levels in WT-3m/Veh and 3×Tg-3 m/Veh mice
- distribution of GFAP-positive staining (GFAP [8]): limited to the NFL and GCL
- area percentage of GFAP in the peripheral retina (GFAP [8]; similar trend): did not reach statistical significance
- area percentage of GFAP-positive staining, central and peripheral retinas (GFAP [9]): drastically elevated in the central and peripheral retinas in ˜22- to 24-month-old/Veh rats as compared to ˜5- to 6-month-old/Veh rats and ˜22- to 24-month-old/P021 rats
- GFAP staining (GFAP [9]; 500 nmoles/kg/day by gavage, 3 months, vs vehicle aged rats): reduced very much
- tau and Aβ pathologies in the retina (total tau, P-tau, Aβ/APP [10]; aged rats, 500 nmoles/kg/day by gavage, 3 months): prevented the increase in tau and Aβ pathologies
- Aβ/APP immunoreactivity (total tau, P-tau, Aβ/APP [10]; retinas of aged rats): prevents increase of Aβ/APP immunoreactivity
- tau hyperphosphorylation at Ser-202/Thr-205 (AT8 site) (total tau, P-tau, Aβ/APP [10]; retinas of aged rats): prevents increase in the expression of tau hyperphosphorylation at Ser-202/Thr-205
- tau hyperphosphorylation at Ser-396/404 (PHF-1 site) (total tau, P-tau, Aβ/APP [10]; retinas of aged rats): prevents increase in the expression of tau hyperphosphorylation at Ser-396/404
- total tau immunoreactivity (R134d) (total tau, P-tau, Aβ/APP [10]; retinas of aged rats): prevents the increase in total tau immunoreactivity
- tau and Aβ pathologies in the retina (total tau, P-tau, Aβ/APP [11]; [16]): prevented the increase in tau and Aβ pathologies
- Aβ/APP immunoreactivity (total tau, P-tau, Aβ/APP [11]; retinas of aged mice): prevents increase of Aβ/APP immunoreactivity
- tau hyperphosphorylation at Ser-202/Thr-205 (AT8 site) (total tau, P-tau, Aβ/APP [11]; retinas of aged mice): prevents increase in the expression of tau hyperphosphorylation at Ser-202/Thr-205
- tau hyperphosphorylation at Ser-396/404 (PHF-1 site) (total tau, P-tau, Aβ/APP [11]; retinas of aged mice): prevents increase in the expression of tau hyperphosphorylation at Ser-396/404
- total tau immunoreactivity (R134d) (total tau, P-tau, Aβ/APP [11]; retinas of aged mice): prevents the increase in total tau immunoreactivity
- VEGF staining in the optic nerve (VEGF; [16]): the size of the staining patch was decreased
- localization of VEGF-positive spots in the retina (VEGF; [16]): limited mainly to the GFL to the IPL
- expression of VEGF in retinas (VEGF; aged mice): prevents increase in the expression of VEGF
- oral bioavailability [12]: orally bioavailable
- cognitive impairment, synaptic deficit, neuroinflammation, tau and Aβ pathologies [13]: rescue cognitive impairment, synaptic deficit, neuroinflammation, and tau and Aβ pathologies
- general physical state (side effects) [14]: did not reveal any worsening in general physical state

From patent US20190307833A1, “TREATMENT OF AGE-RELATED MACULAR DEGENERATION WITH NEUROTROPHIC PEPTIDERGIC COMPOUND” (The Research Foundation for Mental Hygiene, Inc., priority 2018, published 2019)
